Measured values from patent publication US8524302B2, “Natural flavour enhancers and methods for making same” (Pepsico, priority 2009, dated 2013).
Entries after “also recorded” stand apart in the source; their conditions may differ.

Key:
sensory panel [1] = test: Sensory (triangle) tests: kokumi intensity in chicken broth; type: in vivo; details: for Kokumi intensity (0-5): pH 6.5, scale 0-5 (blank = 2); for Sensory descriptors: pH 6.5; for kokumi effect (in words): Table 10
Method: (§1) Unless otherwise indicated, all sensory tests for the samples are determined using triangle tests (Wieser and Belitz, Z. Lebensm. Unters. Forsch., 1975, 159, 65-72) in three different sessions. The sensory panel is trained to evaluate aqueous solutions (2 mL each) of the following reference taste compounds dissolved in bottled water with a pH of 6.0: sucrose (25 mmol/L) for sweet taste; lactic acid (20 mmol/L) for sour taste; NaCl (30 mmol/L) for salty taste; caffeine (1 mmol/L) for bitter taste; and MSG (3 mmol/L) for umami taste, tannic acid (0.05%) for puckering astringency, and quercetin-O-β-D-glucopyranoside (0.01 mmol/L) for a velvety astringent, mouth-drying oral sensation. For the training of viscosity, a gelatin solution (0.5% in water) was used. […] Sensory analyses were performed in a sensory panel room at 19-22° C. in three different sessions using nose clamps.
(§2) For recording the taste profiles, samples are prepared as indicated in the examples below. Flavor profiles of samples are determined in a triangle test in three different sessions. Panelists refrain from eating or drinking for at least 1 hour prior to the session. At the start of the session and before each trial, the subjects rinsed with water and expectorated. The participants receive a set of two blanks and one taste sample. Liquids are swirled around in the mouth briefly and expectorated. […] Each sample with additive is compared to two reference samples without additives. Kokumi intensity is rated according to a scale from 0 to 5 (with 5 being the most intensive). Punch refers to an initial kokumi sensation experienced in the mouth within 0-3 seconds from the time when a food or liquid is put in the mouth, while long-lasting refers to kokumi felt after 10-60 seconds therefrom.
Sensory (triangle) tests are performed by dilution of 3 grams of chicken broth concentrate (Gourmet Bouillon Huhn; Maggi, Singen, Germany) with 100 mL water (Evian®). Additives are added as specified in table below. The pH-value of all samples is adjusted to 6.5 using formic acid (0.1 mol/L) or sodium hydroxide (0.1 mol/L). […] For each sample, kokumi intensity is rated and panelists were asked to describe sensory characteristics.

sensory panel [2] = test: Sensory (triangle) tests of the compounds in water; type: in vivo; details: for Sensory descriptors / Intensity (0-5): additive 10 mmol/L; for Sensory descriptors: pH 6.5; for Intensity (0-5): pH 6.5, aroma and taste intensity, scale 0-5; for kokumi sensation (in words): without inducing or glutamate-containing composition
Method: as §1, §2
Sensory (triangle) tests are performed by dissolving the listed compounds in water (Evian®). Additives are added as specified in table below. The pH-value of all samples is adjusted to 6.5 using formic acid (0.1 mol/L) or sodium hydroxide (0.1 mol/L). For each sample, aroma and taste intensity is rated and panelists are asked to describe sensory characteristics.

| Molecule | Kokumi intensity (0-5) (sensory panel [1]; additive 10 mmol/L) | Sensory descriptors (sensory panel [2]) | Intensity (0-5) (sensory panel [2]) | other results |
| --- | --- | --- | --- | --- |
| C/C=C/[S+]([O-])C[C@H](N)C(=O)O (mixture of isomers) [(E)-S-1-propenyl-L-cysteine-(±)-SO] | 2.2 | onion aroma | 0 | – |
| C/C=C\[S+]([O-])C[C@H](N)C(=O)O (mixture of isomers) [(Z)-S-1-propenyl-L-cysteine-(±)-SO] | 2.2 | tongue covering, pungent | 1 | – |
| C=CC[S+]([O-])C[C@H](NC(=O)CC[C@H](N)C(=O)O)C(=O)NCC(=O)O (mixture of isomers) [S-allyl-GSH-(±)-SO, S-allyl-γ-L-Glu-L-Cys-(±)-SO-Gly] | 2.8 | flavourless | 0 | – |
| C=CC[S@+]([O-])C[C@H](N)C(=O)O (racemic) [S-allyl-L-cysteine-(±)-SO] | 2.4 | – | 1 | – |
| CC[S+]([O-])C[C@H](NC(=O)CC[C@H](N)C(=O)O)C(=O)NCC(=O)O (mixture of isomers) [S-ethyl-GSH-(±)-SO, S-ethyl-γ-L-Glu-L-Cys-(±)-SO-Gly] | 2 | flavourless | 0 | Sensory descriptors (sensory panel [1]; additive 10 mmol/L): same intensity as blank |
| C[S+]([O-])C[C@H](NC(=O)CC[C@H](N)C(=O)O)C(=O)NCC(=O)O (mixture of isomers) [S-methyl-GSH-(±)-SO, S-methyl-γ-L-Glu-L-Cys-(±)-SO-Gly] | 2 | flavourless | 0 | Sensory descriptors (sensory panel [1]; additive 10 mmol/L): same intensity as blank |
| CCC[S+]([O-])C[C@H](NC(=O)CC[C@H](N)C(=O)O)C(=O)NCC(=O)O (mixture of isomers) [S-propyl-GSH-(±)-SO, S-propyl-γ-L-Glu-L-Cys-(±)-SO-Gly] | 2 | flavourless | 0 | Sensory descriptors (sensory panel [1]; additive 10 mmol/L): same intensity as blank |
| C/C=C/[S+]([O-])C[C@H](NC(=O)CC[C@H](N)C(=O)O)C(=O)O (mixture of isomers) [γ-L-glutamyl-(E)-S-1-propenyl-L-cysteine-(±)-SO] | 2.5 | onion aroma | 0.5 | – |
| C=CC[S+]([O-])C[C@H](NC(=O)CC[C@H](N)C(=O)O)C(=O)O (mixture of isomers) [γ-L-glutamyl-S-allyl-L-cysteine-(±)-SO] | 2.5 | burning | 0.5 | – |
| CC[S+]([O-])C[C@H](NC(=O)CC[C@H](N)C(=O)O)C(=O)O (mixture of isomers) [γ-L-glutamyl-S-ethyl-L-cysteine-(±)-SO] | 2.2 | flavourless | 0 | – |
| C[S+]([O-])C[C@H](NC(=O)CC[C@H](N)C(=O)O)C(=O)O (mixture of isomers) [γ-L-glutamyl-S-methyl-L-cysteine-(±)-SO] | 2.5 | flavourless | 0 | – |
| CCC[S+]([O-])C[C@H](NC(=O)CC[C@H](N)C(=O)O)C(=O)O (mixture of isomers) [γ-L-glutamyl-S-propyl-L-cysteine-(±)-SO] | 2.1 | flavourless | 0 | – |
| C/C=C/SC[C@H](N)C(=O)O [(E)-S-1-propenyl-L-cysteine] | 2.5 | fresh onion aroma | 1 | – |
| C/C=C\SC[C@H](N)C(=O)O [(Z)-S-1-propenyl-L-cysteine] | 3.1 | – | 1 | Kokumi intensity (0-5) (sensory panel [1]; additive 5 mmol/L): 3.1 |
| N[C@@H](CCC(=O)N[C@@H](CS)C(=O)NCC(=O)O)C(=O)O [GSH, glutathione, reference compound] | 3.5 | – | – | – |
| N[C@@H](CCC(=O)O)C(=O)[O-].[Na+] [MSG, mono sodium glutamate, reference compound] | 2 | – | – | kokumi effect (in words) (sensory panel [1]): no kokumi effect; Sensory descriptors (sensory panel [1]; additive 10 mmol/L): higher umami intensity; also recorded: increased umami; kokumi sensation (in words) (sensory panel [2]): no kokumi effect |
| C/C=C/SC[C@H](NC(=O)CC[C@H](NCC(=O)[C@@H](O)[C@H](O)[C@H](O)CO)C(=O)O)C(=O)O [N-(1-Deoxy-D-fructos-1-yl)-γ-L-glutamyl-(E)-S-1-propenyl-L-cysteine] | – | – | – | Kokumi intensity (0-5) (sensory panel [1]; additive 4 mmol/L): 3.3 |

| Molecule | Kokumi intensity (0-5) (sensory panel [1]; additive 10 mmol/L) | Sensory descriptors (sensory panel [2]) | Intensity (0-5) (sensory panel [2]) | other results |
| --- | --- | --- | --- | --- |
| [Cl-].[Na+] [NaCl, sodium chloride, reference compound] | – | – | – | kokumi effect (in words) (sensory panel [1]): no kokumi effect; Sensory descriptors (sensory panel [1]; additive 30 mmol/L): more salty than the negative control; also recorded: increased salty taste; Kokumi intensity (0-5) (sensory panel [1]; additive 30 mmol/L): 2; kokumi sensation (in words) (sensory panel [2]): no kokumi effect |
| C=CCSC[C@H](NC(=O)CC[C@H](N)C(=O)O)C(=O)NCC(=O)O [S-allyl-GSH, S-allyl-γ-L-Glu-L-Cys-Gly] | 3.2 | – | 0 | – |
| CCSC[C@H](NC(=O)CC[C@H](N)C(=O)O)C(=O)NCC(=O)O [S-ethyl-GSH, S-ethyl-γ-L-Glu-L-Cys-Gly] | 2.3 | – | 0 | – |
| CCSC[C@H](N)C(=O)O [S-ethyl-L-cysteine] | 2.7 | – | 1 | – |
| CSC[C@H](N)C(=O)O [S-methyl-L-cysteine] | 2.4 | flavourless | 0 | – |
| CSC[C@H](NC(=O)CC[C@H](N)C(=O)O)C(=O)NCC(=O)O [S-methyl-glutathione] | 2.8 | – | 0 | – |
| CCCSC[C@H](NC(=O)CC[C@H](N)C(=O)O)C(=O)NCC(=O)O [S-propyl-GSH, S-propyl-γ-L-Glu-L-Cys-Gly] | 2.1 | flavourless | 0 | – |
| CCCSC[C@H](N)C(=O)O [S-propyl-L-cysteine] | 3.5 | – | 2 | Kokumi intensity (0-5) (sensory panel [1]; additive 5 mmol/L): 3.5 |
| C=CCSC[C@H](NC(=O)CC[C@H](N)C(=O)O)C(=O)O [γ-L-glutamyl-S-allyl-L-cysteine] | 3.7 | – | 1 | – |
| CCSC[C@H](NC(=O)CC[C@H](N)C(=O)O)C(=O)O [γ-L-glutamyl-S-ethyl-L-cysteine] | 3.1 | tongue covering | 0.5 | – |
| CSC[C@H](NC(=O)CC[C@H](N)C(=O)O)C(=O)O [γ-L-glutamyl-S-methyl-L-cysteine] | 3.5 | flavourless | 0 | – |
| CCCSC[C@H](NC(=O)CC[C@H](N)C(=O)O)C(=O)O [γ-L-glutamyl-S-propyl-L-cysteine] | 2.8 | tongue covering | 0.5 | – |
| S-allyl-L-cysteine-(+)-SO [Alliin] | 2.5 | – | – | – |
| S-ethyl-L-cysteine-(±)-SO | 2.1 | – | 1 | – |
| S-methyl-L-cysteine-(±)-SO | 2.1 | flavourless | 0 | – |
| S-propyl-L-cysteine-(±)-SO | 2.3 | – | 1 | Kokumi intensity (0-5) (sensory panel [1]; additive 5 mmol/L): 2.3 |
